Laboratory results from ChEMBL document CHEMBL1255480, “Characterization of DIM-1, an integron-encoded metallo-beta-lactamase from a Pseudomonas stutzeri clinical isolate in the Netherlands” (2010).
In brackets after ≈: the same amount, converted by molar mass.

Columns and labels:
Stutzerimonas stutzeri [1] = test: Antimicrobial activity against Pseudomonas stutzeri clinical isolate expressing beta-lactamase DIM-1 by agar dilution method in presence of beta-lactam inhibitor clavulanic acid; format: functional
Escherichia coli [2] = test: Antimicrobial activity against Escherichia coli TOP10 harboring beta-lactamase DIM-1 by agar dilution method; format: functional
Escherichia coli [3] = test: Antimicrobial activity against Escherichia coli TOP10 harboring beta-lactamase DIM-1 by agar dilution method in presence of beta-lactam inhibitor clavulanic acid; format: functional
Escherichia coli [4] = test: Antimicrobial activity against Escherichia coli TOP10 by agar dilution method; format: functional
Escherichia coli [5] = test: Antimicrobial activity against Escherichia coli TOP10 by agar dilution method in presence of beta-lactam inhibitor clavulanic acid; format: functional
[6] = molecular target: T1, Metallo-beta-lactamase (Pseudomonas stutzeri) (UniProt D5JGF6); test: Ratio of Kcat to Km for Pseudomonas stutzeri beta-lactamase DIM-1by UV-spectrophotometry; parameters: unit not given here; settings: Stutzerimonas stutzeri
T1 sequence (whole entry): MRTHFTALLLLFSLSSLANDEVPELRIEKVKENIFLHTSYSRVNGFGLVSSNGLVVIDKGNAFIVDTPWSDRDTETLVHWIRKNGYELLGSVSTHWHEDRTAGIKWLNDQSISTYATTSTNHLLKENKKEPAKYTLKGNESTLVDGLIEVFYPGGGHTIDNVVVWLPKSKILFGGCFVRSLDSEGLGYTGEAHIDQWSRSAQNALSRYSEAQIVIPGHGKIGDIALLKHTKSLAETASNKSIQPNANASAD

Stutzerimonas stutzeri [7] = test: Antimicrobial activity against Pseudomonas stutzeri clinical isolate expressing beta-lactamase DIM-1 by agar dilution method; format: functional
Stutzerimonas stutzeri [8] = test: Antimicrobial activity against Pseudomonas stutzeri clinical isolate expressing beta-lactamase DIM-1 by agar dilution method in presence of beta-lactam inhibitor Tazobactam; format: functional
Escherichia coli [9] = test: Antimicrobial activity against Escherichia coli TOP10 harboring beta-lactamase DIM-1 by agar dilution method in presence of beta-lactam inhibitor Tazobactam; format: functional
Escherichia coli [10] = test: Antimicrobial activity against Escherichia coli TOP10 by agar dilution method in presence of beta-lactam inhibitor Tazobactam; format: functional
[11] = substrate: CC(=O)OCC1=C(C(=O)O)N2C(=O)[C@@H](NC(=O)Cc3cccs3)[C@H]2SC1; test: (§1) Activity of Pseudomonas stutzeri beta-lactamase DIM-1 by UV-spectrophotometry; settings: Stutzerimonas stutzeri
[12] = substrate: CC(C)(O/N=C(\C(=O)N[C@@H]1C(=O)N2C(C(=O)[O-])=C(C[n+]3ccccc3)CS[C@H]12)c1csc(N)n1)C(=O)O; test: as §1; settings: Stutzerimonas stutzeri
[13] = substrate: CC1(C)S[C@@H]2[C@H](NC(=O)Cc3ccccc3)C(=O)N2[C@H]1C(=O)O; test: as §1; settings: Stutzerimonas stutzeri
[14] = substrate: CC1(C)S[C@@H]2[C@H](NC(=O)[C@H](C(=O)O)c3ccsc3)C(=O)N2[C@H]1C(=O)O; test: as §1; settings: Stutzerimonas stutzeri
[15] = substrate: CC1(C)S[C@@H]2[C@H](NC(=O)[C@H](N)c3ccccc3)C(=O)N2[C@H]1C(=O)O; test: as §1; settings: Stutzerimonas stutzeri
[16] = substrate: CO/N=C(\C(=O)N[C@@H]1C(=O)N2C(C(=O)O)=C(COC(C)=O)CS[C@H]12)c1csc(N)n1; test: as §1; settings: Stutzerimonas stutzeri
[17] = substrate: CO/N=C(\C(=O)N[C@@H]1C(=O)N2C(C(=O)[O-])=C(C[N+]3(C)CCCC3)CS[C@H]12)c1csc(N)n1; test: as §1; settings: Stutzerimonas stutzeri
[18] = substrate: CO[C@@]1(NC(=O)Cc2cccs2)C(=O)N2C(C(=O)O)=C(COC(N)=O)CS[C@@H]21; test: as §1; settings: Stutzerimonas stutzeri
[19] = substrate: C[C@@H](O)[C@H]1C(=O)N2C(C(=O)O)=C(SCCNC=N)C[C@H]12; test: as §1; settings: Stutzerimonas stutzeri
[20] = substrate: C[C@@H](O)[C@H]1C(=O)N2C(C(=O)O)=C(S[C@@H]3CN[C@H](C(=O)N(C)C)C3)[C@H](C)[C@H]12; test: as §1; settings: Stutzerimonas stutzeri
[21] = substrate: C[C@H]1[C@H](NC(=O)/C(=N\OC(C)(C)C(=O)O)c2csc(N)n2)C(=O)N1S(=O)(=O)O; test: as §1; settings: Stutzerimonas stutzeri

`CC1(C)S[C@@H]2[C@H](NC(=O)[C@H](C(=O)O)c3ccsc3)C(=O)N2[C@H]1C(=O)O` [TICARCILLIN] gave an MIC (Stutzerimonas stutzeri [1]) greater than 512 µg/mL, an MIC (Escherichia coli [2]) greater than 512 µg/mL and an MIC (Escherichia coli [3]) greater than 512 µg/mL. For the same molecule, the MIC (Escherichia coli [4]) was 4 µg/mL (≈ 10.4 µM), the MIC (Escherichia coli [5]) was 4 µg/mL and the Ratio [6] was 15000. The MIC (Stutzerimonas stutzeri [7]) was greater than 512 µg/mL.

With `CO[C@@]1(NC(=O)Cc2cccs2)C(=O)N2C(C(=O)O)=C(COC(N)=O)CS[C@@H]21` [CEFOXITIN] the MIC (Escherichia coli [2]) was 512 µg/mL (≈ 1200 µM), the MIC (Escherichia coli [4]) was 4 µg/mL (≈ 9.36 µM) and the Ratio [6] was 400. The MIC (Stutzerimonas stutzeri [7]) was 512 µg/mL (≈ 1200 µM).

`CC1(C)S[C@@H]2[C@H](NC(=O)[C@H](N)c3ccccc3)C(=O)N2[C@H]1C(=O)O` gave a Ratio [6] of 180.

Molecule `C[C@@H](O)[C@H]1C(=O)N2C(C(=O)O)=C(SCCNC=N)C[C@H]12` [IMIPENEM ANHYDROUS] has an MIC (Escherichia coli [2]) of 2 µg/mL (≈ 6.68 µM), a Ratio [6] of 440 and an MIC (Stutzerimonas stutzeri [7]) of 64 µg/mL (≈ 214 µM).

With `CCN1CCN(C(=O)N[C@@H](C(=O)N[C@@H]2C(=O)N3[C@@H]2SC(C)(C)[C@@H]3C(=O)O)c2ccccc2)C(=O)C1=O` [PIPERACILLIN] the MIC (Escherichia coli [2]) was greater than 512 µg/mL, the MIC (Escherichia coli [4]) was 1 µg/mL (≈ 1.93 µM) and the MIC (Stutzerimonas stutzeri [7]) was greater than 512 µg/mL. The MIC (Stutzerimonas stutzeri [8]) was 512 µg/mL, the MIC (Escherichia coli [9]) was 512 µg/mL and the MIC (Escherichia coli [10]) was 1 µg/mL.

With `CC1(C)S[C@@H]2[C@H](NC(=O)[C@H](N)c3ccc(O)cc3)C(=O)N2[C@H]1C(=O)O` [AMOXICILLIN] the MIC (Stutzerimonas stutzeri [1]) was greater than 512 µg/mL, the MIC (Escherichia coli [2]) was greater than 512 µg/mL and the MIC (Escherichia coli [3]) was greater than 512 µg/mL. The MIC (Escherichia coli [4]) was 4 µg/mL (≈ 10.9 µM), the MIC (Escherichia coli [5]) was 4 µg/mL and the MIC (Stutzerimonas stutzeri [7]) was greater than 512 µg/mL.

`CO/N=C(\C(=O)N[C@@H]1C(=O)N2C(C(=O)[O-])=C(C[N+]3(C)CCCC3)CS[C@H]12)c1csc(N)n1` was tested, and the MIC (Escherichia coli [2]) was 1 µg/mL (≈ 2.08 µM).

Work on `CC(C)(O/N=C(\C(=O)N[C@@H]1C(=O)N2C(C(=O)[O-])=C(C[n+]3ccccc3)CS[C@H]12)c1csc(N)n1)C(=O)O` [CEFTAZIDIME] yielded an MIC (Escherichia coli [2]) of 256 µg/mL (≈ 468 µM), an MIC (Escherichia coli [4]) of 0.06 µg/mL (≈ 0.11 µM) and a Ratio [6] of 60. The MIC (Stutzerimonas stutzeri [7]) was 8 µg/mL (≈ 14.6 µM).

Molecule `C[C@@H](O)[C@H]1C(=O)N2C(C(=O)O)=C(S[C@@H]3CN[C@H](C(=O)N(C)C)C3)[C@H](C)[C@H]12` has a Ratio [6] of 200.

Molecule `CC(=O)OCC1=C(C(=O)O)N2C(=O)[C@@H](NC(=O)Cc3cccs3)[C@H]2SC1` has a Ratio [6] of 5000.

`CO/N=C(\C(=O)N[C@@H]1C(=O)N2C(C(=O)O)=C(COC(C)=O)CS[C@H]12)c1csc(N)n1` [CEFOTAXIME] was tested, and the MIC (Escherichia coli [2]) was 256 µg/mL (≈ 562 µM), the MIC (Escherichia coli [4]) was 0.12 µg/mL (≈ 0.263 µM) and the Ratio [6] was 3000. The MIC (Stutzerimonas stutzeri [7]) was 512 µg/mL (≈ 1120 µM).

Work on `C[C@H]1[C@H](NC(=O)/C(=N\OC(C)(C)C(=O)O)c2csc(N)n2)C(=O)N1S(=O)(=O)O` [AZTREONAM] yielded an MIC (Escherichia coli [2]) of 0.25 µg/mL (≈ 0.574 µM).

For `CC1(C)S[C@@H]2[C@H](NC(=O)Cc3ccccc3)C(=O)N2[C@H]1C(=O)O`, the Ratio [6] was 2800.

B1: Metallo-beta-lactamase (Pseudomonas stutzeri), D5JGF6 (protein)
chain: T1 sequence (whole entry)
In the case of B1, the Km [11] is reported as 6 µM, the kcat [11] is reported as 30 s⁻¹ and the Km [12] is reported as 50 µM. The kcat [12] was 3 s⁻¹, the Km [13] was 90 µM and the kcat [13] was 250 s⁻¹. It also gave a Km [14] of 80 µM, a kcat [14] of 250 s⁻¹ and a Km [15] of 110 µM. It also gave a kcat [15] of 20 s⁻¹, a Km [16] of 3.5 µM and a kcat [16] of 10 s⁻¹. For the same molecule, the Km [17] was 220 µM, the kcat [17] was 3 s⁻¹ and the Km [18] was 20 µM. For the same molecule, the kcat [18] was 8 s⁻¹, the Km [19] was 80 µM and the kcat [19] was 35 s⁻¹. For the same molecule, the Km [20] was 20 µM, the kcat [20] was 4 s⁻¹ and the kcat [21] was less than 0.01 s⁻¹.
